Experimental data as given in patent US20220089589A1, “SMALL MOLECULE DEGRADERS OF FKBP12 VIA RECRUITMENT OF VON HIPPEL-LINDAU E3 UBIQUITIN LIGASE (VHL) E3 UBIQUITIN LIGASE, AND USES IN dTAG SYSTEMS” (DANA-FARBER CANCER INSTITUTE, INC., priority 2019, published 2022).
Entries after “also recorded” stand apart in the source; their conditions may differ.

Experiments:
Assay type in all cases: cell-based
LACZ-FKBP12^F36V [1] = experiment: Immunoblotting of PATU-8902 LACZ-FKBP12^F36V clone (Example 6); conditions: 50 or 500 nM, 4 hrs
Description: (§1) PATU-8902 LACZ-FKBP12^F36V clone was plated in 6-well format, allowed to adhere overnight, and treated with 50 nM and 500 nM dTAG molecules for 4 hrs. Following treatment, cells were lysed in RIPA buffer on ice for 60 minutes. Lysates were clarified by centrifugation at 20,000×g for 10 minutes at 4° C. Immunoblotting was performed to determine changes in protein levels with an Odyssey CLx Imager. The indicated antibodies were employed including HA (hemagglutinin) to monitor LACZ-FKBP12^F36V degradation and α-TUBULIN as a loading control.

LACZ-FKBP12^F36V [2] = experiment: Immunoblotting of PATU-8902 LACZ-FKBP12^F36V clone, compound 1 and/or THAL-SNS-032 (Example 7), HA; conditions: 500 nM compound 1, 24 hrs, single agent
Description: (§2) PATU-8902 LACZ-FKBP12^F36V clone was plated in 6-well format, allowed to adhere overnight, and treated with DMSO and indicated doses of THAL-SNS-032 and/or 500 nM compound 1 for 24 hrs. Following treatment, cells were lysed in RIPA buffer on ice for 60 minutes. Lysates were clarified by centrifugation at 20,000×g for 10 minutes at 4° C. Immunoblotting was performed to determine changes in protein levels with an Odyssey CLx Imager. The indicated antibodies were employed including HA to monitor LACZ-FKBP12^F36V degradation, CDK9 to monitor CDK9 degradation and α-TUBULIN as a loading control.

FKBP12^F36V-KRAS^G12V [3] = experiment: Immunoblotting of PATU-8902 FKBP12^F36V-KRAS^G12V; KRAS^−/− clone (Example 8), HA; conditions: 50 or 500 nM, 4 hrs
Description: as §1, with “FKBP12^F36V-KRAS^G12V; KRAS^−/−” for “LACZ-FKBP12^F36V”, “HA” for “HA (hemagglutinin)”, “FKBP12^F36V-KRAS^G12V degradation, total and phosphorylated ERK to evaluate changes in ERK signaling, total and phosphorylated AKT to evaluate changes in AKT signaling” for “LACZ-FKBP12^F36V degradation”

pERK = experiment: Immunoblotting of PATU-8902 FKBP12^F36V-KRAS^G12V; KRAS^−/− clone (Example 8), ERK signaling; conditions: 50 or 500 nM, 4 hrs
Description: as §1, with “FKBP12^F36V-KRAS^G12V; KRAS^−/−” for “LACZ-FKBP12^F36V”, “HA” for “HA (hemagglutinin)”, “FKBP12^F36V-KRAS^G12V degradation, total and phosphorylated ERK to evaluate changes in ERK signaling, total and phosphorylated AKT to evaluate changes in AKT signaling” for “LACZ-FKBP12^F36V degradation”

pAKT = experiment: Immunoblotting of PATU-8902 FKBP12^F36V-KRAS^G12V; KRAS^−/− clone (Example 8), AKT signaling; conditions: 50 or 500 nM, 4 hrs
Description: as §1, with “FKBP12^F36V-KRAS^G12V; KRAS^−/−” for “LACZ-FKBP12^F36V”, “HA” for “HA (hemagglutinin)”, “FKBP12^F36V-KRAS^G12V degradation, total and phosphorylated ERK to evaluate changes in ERK signaling, total and phosphorylated AKT to evaluate changes in AKT signaling” for “LACZ-FKBP12^F36V degradation”

FKBP12^F36V-KRAS^G12V [4] = experiment: Immunoblotting of PATU-8902 FKBP12^F36V-KRAS^G12V; KRAS^−/− clone with carfilzomib or MLN4924 pre-treatment (Example 9); conditions: 500 nM, 4 hrs
Description: as §1, with “PATU-8902 FKBP12^F36V-KRAS^G12V; KRAS^−/−” for “PATU-8902 LACZ-FKBP12^F36V”, “with DMSO, Carflizomib (CARF) or MLN4924 (MLN) prior to treatment with DMSO or compound 1” for “with 50 nM and 500 nM dTAG molecules”, “HA” for “HA (hemagglutinin)”, “monitor FKBP12^F36V-KRAS^G12V” for “monitor LACZ-FKBP12^F36V”

FKBP12^F36V-KRAS^G12V [5] = experiment: Immunoblotting of 293T^WT FKBP12^F36V-KRAS^G12V cells; conditions: 50 or 500 nM, 24 hrs
Description: as §1, with “293T^WT or 293T^VHL−/− FKBP12^F36V-KRAS^G12V cells were plated” for “PATU-8902 LACZ-FKBP12^F36V clone was plated”, “for 24” for “for 4”, “HA” for “HA (hemagglutinin)”, “monitor FKBP12^F36V-KRAS^G12V” for “monitor LACZ-FKBP12^F36V”

FKBP12^F36V-KRAS^G12V [6] = experiment: Immunoblotting of 293T^VHL−/− FKBP12^F36V-KRAS^G12V cells; conditions: 50 or 500 nM, 24 hrs
Description: as §1, with “293T^WT or 293T^VHL−/− FKBP12^F36V-KRAS^G12V cells were plated” for “PATU-8902 LACZ-FKBP12^F36V clone was plated”, “for 24” for “for 4”, “HA” for “HA (hemagglutinin)”, “monitor FKBP12^F36V-KRAS^G12V” for “monitor LACZ-FKBP12^F36V”

[7] = test system: PATU-8902 FKBP12^F36V-KRAS^G12V; KRAS^−/− clone; experiment: Anti-proliferation via CellTiter-Glo, PATU-8902 FKBP12^F36V-KRAS^G12V; KRAS^−/− clone (Example 11); conditions: 0.00063-20 μM, 72 hrs
Description: (§3) PATU-8902 LACZ-FKBP12^F36V or FKBP12^F36V-KRAS^G12V; KRAS^−/− clones were plated in 384-well format, allowed to adhere overnight, and treated with various dTAG molecules from compound stock plates using a JANUS® Workstation pin tool for 72 hrs. To measure cell viability, CellTilter-Glo® was added to wells for 15 minutes at r.t. and luminescence was measured on an EnVision™ 2104 Multilabel Plate Reader.

[8] = test system: PATU-8902 LACZ-FKBP12^F36V clone; experiment: Anti-proliferation via CellTiter-Glo, PATU-8902 LACZ-FKBP12^F36V control clone (Example 11); conditions: 0.00063-20 μM, 72 hrs
Description: as §3

[9] = test system: PATU-8902 FKBP12^F36V-KRAS^G12V; KRAS^−/− clone; experiment: Anti-proliferation via CellTiter-Glo, PATU-8902 FKBP12^F36V-KRAS^G12V; KRAS^−/− clone (Example 12); conditions: 0.000063-2 μM, 72 hrs
Description: as §3, with “Cell Tilter-Glo®” for “CellTilter-Glo®”

[10] = test system: PATU-8902 LACZ-FKBP12^F36V clone; experiment: Anti-proliferation via CellTiter-Glo, PATU-8902 LACZ-FKBP12^F36V control clone (Example 12); conditions: 0.000063-2 μM, 72 hrs
Description: as §3, with “Cell Tilter-Glo®” for “CellTilter-Glo®”

[11] = test system: PATU-8902 FKBP12^F36V-KRAS^G12V; KRAS^−/− clone; experiment: Cell transformation by growth in ultra-low attachment conditions, PATU-8902 FKBP12^F36V-KRAS^G12V; KRAS^−/− clone (Example 13); conditions: 0.000063-2 μM, 120 hrs
Description: as §3, with “format in ultra-low attachment conditions,” for “format,”, “form 3D-spheroids” for “adhere”, “120” for “72”, “transformation, Cell Tilter-Glo®” for “viability, CellTilter-Glo®”, “room temperature” for “r.t.”

[12] = test system: PATU-8902 LACZ-FKBP12^F36V clone; experiment: Cell transformation by growth in ultra-low attachment conditions, PATU-8902 LACZ-FKBP12^F36V control clone (Example 13); conditions: 0.000063-2 μM, 120 hrs
Description: as §3, with “format in ultra-low attachment conditions,” for “format,”, “form 3D-spheroids” for “adhere”, “120” for “72”, “transformation, Cell Tilter-Glo®” for “viability, CellTilter-Glo®”, “room temperature” for “r.t.”

FKBP12^F36V-GFP = experiment: Immunoblotting of EWS502 FKBP12^F36V-GFP cells; conditions: dTAG-13 10-5000 nM, compound 1 50-5000 nM, 24 hrs
Description: (§4) EWS502 FKBP12^F36V-GFP and FKBP12^F36V-EWS/FLI; EWS/FLP^−/− cells were plated in 6-well format, allowed to adhere overnight, and treated with (10-5000 nM) dTAG-13 or (50-5000 nM) compound 1 for 24 hrs. Following treatment, cells were lysed in Cell Lysis Buffer (Cell Signaling Technology®) on ice for 60 minutes. Lysates were clarified by centrifugation at 20,000×g for 10 minutes at 4° C. Immunoblotting was performed to determine changes in protein levels upon incubation with the appropriate horseradish peroxidase-conjugated secondary antibodies. The indicated antibodies were employed including HA to monitor FKBP12^F36V-GFP or FKBP12^F36V-EWS/FLI degradation and Vinculin as a loading control.

FKBP12^F36V-EWS/FLI = experiment: Immunoblotting of EWS502 FKBP12^F36V-EWS/FLI; EWS/FLI^−/− cells; conditions: dTAG-13 10-5000 nM, compound 1 50-5000 nM, 24 hrs, EWS502 cells
Description: as §4

CDK9 = target: T1, CDK9 (Homo sapiens, UniProt P50750); experiment: Immunoblotting of PATU-8902 LACZ-FKBP12^F36V clone, compound 1 and/or THAL-SNS-032 (Example 7), CDK9; conditions: indicated doses of THAL-SNS-032, 24 hrs, single agent
T1 construct: endogenous in cells; host or cells: PATU-8902 LACZ-FKBP12^F36V clone
Description: as §2

| degradation of CDK9 (immunoblot) (CDK9) | Structure (SMILES) | degradation of LACZ-FKBP12^F36V (immunoblot) (LACZ-FKBP12^F36V [1]) | degradation of LACZ-FKBP12^F36V (immunoblot) (LACZ-FKBP12^F36V [2]) | degradation of FKBP12^F36V-KRAS^G12V (immunoblot) (FKBP12^F36V-KRAS^G12V [3]) | pERK levels (immunoblot) (pERK) | pAKT levels (immunoblot) (pAKT) | degradation of FKBP12^F36V-KRAS^G12V (immunoblot) (FKBP12^F36V-KRAS^G12V [4]; DMSO pre-treatment) | degradation of FKBP12^F36V-KRAS^G12V after pre-treatment with Nedd8 activating enzyme inhibitor MLN4924 (MLN) (FKBP12^F36V-KRAS^G12V [4]; MLN4924 pre-treatment) | degradation of FKBP12^F36V-KRAS^G12V after pre-treatment with proteasome-inhibitor carfilzomib (CARF) (FKBP12^F36V-KRAS^G12V [4]; carfilzomib pre-treatment) | degradation of FKBP12^F36V-KRAS^G12V in 293T^WT cells (immunoblot) (FKBP12^F36V-KRAS^G12V [5]) | degradation of FKBP12^F36V-KRAS^G12V in 293T^VHL−/− cells (immunoblot) (FKBP12^F36V-KRAS^G12V [6]) | anti-proliferative effects / loss of cell viability (% DMSO control) [7] | anti-proliferative effects on LACZ-FKBP12^F36V control clone [8] | anti-proliferative effects / loss of cell viability (% DMSO control) [9] | anti-proliferative effects on LACZ-FKBP12^F36V control clone [10] | loss of cell transformation (3D-spheroids, % DMSO control) [11] | effects on cell transformation of LACZ-FKBP12^F36V control clone [12] | degradation of FKBP12^F36V-GFP (immunoblot) (FKBP12^F36V-GFP) | degradation of FKBP12^F36V-EWS/FLI (immunoblot) (FKBP12^F36V-EWS/FLI) |
| --- | --- | --- | --- | --- | --- | --- | --- | --- | --- | --- | --- | --- | --- | --- | --- | --- | --- | --- | --- |
|  | CC[C@H](C(=O)N1CCCC[C@H]1C(=O)O[C@H](CCc1ccc(OC)c(OC)c1)c1ccccc1OCC(=O)NCCCCCCC(=O)N[C@H](C(=O)N1C[C@H](O)C[C@H]1C(=O)N[C@@H](C)c1ccc(-c2scnc2C)cc1)C(C)(C)C)c1cc(OC)c(OC)c(OC)c1 [Compound 1, (R)-3-(3,4-dimethoxyphenyl)-1-(2-(2-((7-(((S)-1-((2S,4R)-4-hydroxy-2-(((S)-1-(4-(4-methylthiazol-5-yl)phenyl)ethyl)carbamoyl)pyrrolidin-1-yl)-3,3-dimethyl-1-oxobutan-2-yl)amino)-7-oxoheptyl)amino)-2-oxoethoxy)phenyl)propyl (S)-1-((S)-2-(3,4,5-trimethoxyphenyl)butanoyl)piperidine-2-carboxylate] | rapid degradation; also recorded: potent degradation | potent degradation | potent degradation | pronounced diminished levels | pronounced diminished levels | potent degradation | rescued | rescued | potent degradation | not and did not degrade | Effective loss of viability; also recorded: potent anti-proliferative effects | limited effects | Effective loss of viability; also recorded: potent anti-proliferative effects | limited effects | Effective loss of viability; also recorded: potent loss of cell transformation | limited effects | Degradation of GFP (control) is observed; also recorded: potent degradation | potent degradation |
| potent degradation | CC(C)(C)c1cnc(CSc2cnc(NC(=O)C3CCN(CC(=O)NCCOCCOCCOCCNc4cccc5c4C(=O)N(C4CCC(=O)NC4=O)C5=O)CC3)s2)o1 (stereo not shown) [THAL-SNS-032] |  |  |  |  |  |  |  |  |  |  |  |  |  |  |  |  |  |  |
